For one series, the target named is T1, human 17βHSD type 5 (Homo sapiens, UniProt P42330).
T1 construct: A full-length cDNA encoding human 17βHSD type 5 used in the pharmacological test of the present invention; made in house; host or cells: Escherichia coli BL21
T1 sequence (P42330 1-323): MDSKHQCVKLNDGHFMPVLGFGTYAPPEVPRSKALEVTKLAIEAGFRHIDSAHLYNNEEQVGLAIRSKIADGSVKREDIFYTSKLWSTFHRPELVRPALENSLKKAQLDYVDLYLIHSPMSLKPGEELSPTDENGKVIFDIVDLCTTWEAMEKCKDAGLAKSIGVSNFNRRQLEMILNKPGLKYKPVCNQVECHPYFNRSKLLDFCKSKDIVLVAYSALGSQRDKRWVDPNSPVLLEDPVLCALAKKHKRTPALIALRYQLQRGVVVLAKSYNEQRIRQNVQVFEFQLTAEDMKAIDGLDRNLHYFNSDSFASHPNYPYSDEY
In words: Measurement of enzyme activity of human 17βHSD type 5 (testosterone production from androstenedione, DELFIA). The series is classed as biochemical. Particulars: purified enzyme 10 μg/mL, androstenedione 300 nM, NADPH 200 μM, pH 6.0, room temperature, 2 hours. The text has this: A full-length cDNA encoding human 17βHSD type 5 used in the pharmacological test of the present invention was obtained by the PCR method using a cDNA derived from a human lung cancer-derived cell line, A549 cells as a template. […] Escherichia coli BL21 was transformed with a plasmid containing the cDNA and cultured on a large scale. The proteins were purified by using GSTrapFF column (manufactured by Amersham) and PreScissionProtease (manufactured by Amersham). The purification method was carried out in accordance with the instructions attached to the GSTrapFF column.
The measurement was performed in accordance with the attached instructions. The amount of reduction of testosterone production in the presence of the compound was obtained as a relative value with respect to the amount of testosterone in the absence of the enzyme set at 0% and the amount of testosterone produced in the absence of the compound set at 100%. Then, IC50 values were calculated by the Logistic regression method.

Series [1] deals with T2, LNCaP cells expressing human 17βHSD type 5 (Homo sapiens, UniProt P42330).
T2 sequence (P42330 1-323): T1 sequence (P42330 1-323)
In words: Cell growth capability using LNCaP cells expressing human 17βHSD type 5 (CellTiter-Glo). The series is classed as cell-based. The settings on record: androstenedione 10 nM, culturing for 7 days; read-out: LNCaP-17β5 IC50 (cell growth inhibitory activity). As to the method:
LNCaP cells of the human prostate cancer-derived cell line were transformed with a plasmid containing the clone selected in section 1 above and then a cell line showing stable expression was obtained.
9000 cells/well of the transformed cells obtained in section 4 above were seeded in a 96-well plate and cultured overnight. Then, androstenedione, in conjunction with a test compound, was added thereto at a final concentration of 10 nM, followed by culturing for 7 days. After the culturing, number of the cells was counted using a CellTiter-Glo (registered trademark) Luminescent Cell Viability Assay (Promega). The CellTiter-Glo (registered trademark) Luminescent Cell Viability Assay is a reagent that measures the number of the cells by monitoring an intracellular ATP level from the luminescence intensity by luciferase. The experimental manipulation was carried out in accordance with the attached instructions. The cell growth inhibitory activity in the presence of a test compound was calculated as a relative value with respect to the number of the cells in the absence of androstenedione set at proliferation of 0%, and the number of the cells in the presence of androstenedione and in the absence of the test compound set at proliferation of 100%. Then, IC50 values were calculated by the Logistic regression method.

The next series deals with T3, human 17βHSD type 3 (Homo sapiens, UniProt P37058).
T3 construct: A full-length cDNA encoding human 17βHSD type 3 used in the pharmacological test of the present invention; expressed in transfected cells; host or cells: 293 cells (human fetus kidney-derived); supernatant of disrupted cells
T3 sequence (P37058 1-310): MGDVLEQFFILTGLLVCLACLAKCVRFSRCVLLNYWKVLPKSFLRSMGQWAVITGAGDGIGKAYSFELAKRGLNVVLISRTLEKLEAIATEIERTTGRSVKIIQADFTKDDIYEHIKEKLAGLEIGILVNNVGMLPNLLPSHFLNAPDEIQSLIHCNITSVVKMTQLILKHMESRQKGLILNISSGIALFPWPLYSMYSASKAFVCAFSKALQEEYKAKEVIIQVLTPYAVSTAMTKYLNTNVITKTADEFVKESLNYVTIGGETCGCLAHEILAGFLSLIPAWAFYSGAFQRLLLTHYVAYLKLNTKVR
In words: Measurement of enzyme activity of human 17βHSD type 3. Type of series: biochemical. The settings on record: supernatant of transformed 293 cells as enzyme source. As to the method:
A full-length cDNA encoding human 17βHSD type 3 used in the pharmacological test of the present invention was obtained by the PCR method using a cDNA derived from human testis as a template. The nucleotide sequence of the obtained cDNA was analyzed by the dideoxyterminator method, and the clone matched with the known human 17βHSD type 3 sequence (GenBank accession No. BC034281) was selected. Subsequently, human fetus kidney-derived cell line, 293 cells, were transformed with a plasmid containing the cDNA, and the cells were collected 24 hours later. The collected cells were then disrupted in a phosphate buffer solution containing 5% glycerol (500 μL per 100 mm-dish of a phosphate buffer solution (pH 7.4, 200 mM) containing 5% glycerol) and centrifuged (16000 rpm, 5 min, 4° C.), and the supernatant was used as an enzyme source.
Enzyme activity was measured referring to Trevor M. Penning, et al., Biochem. J., 351, 67-77, (2000). Specifically, using a 100 mM potassium phosphate buffer (pH 6.0), (1) the enzyme purified in section 1 above at a final concentration of 10 μg/mL, (2) androstenedione at a final concentration of 300 nM, (3) NADPH at a final concentration of 200 μM, and (4) a test substance, were mixed to react at room temperature for 2 hours, and then the amount of testosterone produced was measured using DELFIA (registered trademark) Testosterone Reagents R050-201 (manufactured by PerkinElmer). The measurement was performed in accordance with the attached instructions. The amount of reduction of testosterone production in the presence of the compound was obtained as a relative value with respect to the amount of testosterone in the absence of the enzyme set at 0% and the amount of testosterone produced in the absence of the compound set at 100%. Then, IC50 values were calculated by the Logistic regression method.

The test system of a further series is 5α-reductase. Particulars: patients with BPH, after administration; cited from earlier work.

As usually defined, the melting point is the temperature of the solid-liquid transition. By IC50 is commonly meant the concentration at which inhibition is half-maximal. The compound `CC(C)(O)CC1CCN(C(=O)c2cc3cc(Cl)ccc3[nH]2)CC1` [Example 1, 1-{1-[(5-chloro-1H-indol-2-yl)carbonyl]piperidin-4-yl}-2-methylpropan-2-ol] gave a melting point of 178 to 180 °C. Besides, inhibition against human 17βHSD type 5 was half-maximal at 4.5 nM (IC50). Also, in series [1], the GI50 is 8.9 nM. Moreover, at human 17βHSD type 3, the IC50 is over 10000 nM.
The matching figures for `CC(C)(O)CC1CCN(C(=O)c2cc3ccccc3[nH]2)CC1` [Example 9, 1-[1-(1H-indol-2-ylcarbonyl)piperidin-4-yl]-2-methylpropan-2-ol]: 153 to 163 °C, 130 nM, 10 nM and over 10000 nM.
The matching figures for `CC(C)(O)CC1CCN(C(=O)c2cc3cc(O)ccc3[nH]2)CC1` [Example 15, 2-{[4-(2-hydroxy-2-methylpropyl)piperidin-1-yl]carbonyl}-1H-indol-5-ol]: 212 to 219 °C, 15 nM, 18 nM and over 10000 nM.
The corresponding values for `Cc1ccc2[nH]c(C(=O)N3CCC(CC(C)(C)O)CC3)c(C)c2c1` [Example 17, 1-{1-[(3,5-dimethyl-1H-indol-2-yl)carbonyl]piperidin-4-yl}-2-methylpropan-2-ol] are 166 to 168 °C, 390 nM, 20 nM and over 10000 nM.
Compound `CC(C)(O)CC1CCN(C(=O)c2cc3cc([N+](=O)[O-])ccc3[nH]2)CC1` [Example 20, 2-methyl-1-{1-[(5-nitro-1H-indol-2-yl)carbonyl]piperidin-4-yl}propan-2-ol] registered a melting point of 223 to 225 °C. In addition, 15 nM corresponded to half-maximal inhibition at human 17βHSD type 5 (IC50). In addition, the GI50 in series [1] was determined as 29 nM. The IC50 on human 17βHSD type 3 is over 10000 nM.
The matching figures for `Cc1ccc2[nH]c(C(=O)N3CCC(CCO)CC3)cc2c1` [Example 22, 2-{1-[(5-methyl-1H-indol-2-yl)carbonyl]piperidin-4-yl}ethanol]: 163 to 165 °C, 21 nM, 60 nM and over 10000 nM.
The matching figures for `Cc1ccc2[nH]c(C(=O)N3CCC(CC(C)(C)O)CC3)cc2c1` [Example 24, 2-methyl-1-{1-[(5-methyl-1H-indol-2-yl)carbonyl]piperidin-4-yl}propan-2-ol]: 149 to 150 °C, 150 nM, 24 nM and over 10000 nM.
In the case of `COc1ccc2[nH]c(C(=O)N3CCC(CC(C)(C)O)CC3)cc2c1` [Example 25, 1-{1-[(5-methoxy-1H-indol-2-yl)carbonyl]piperidin-4-yl}-2-methylpropan-2-ol], the GI50 in series [1] is 12 nM. Besides, the IC50 on human 17βHSD type 3 was over 10000 nM.
Compound `CC(O)CC1CCN(C(=O)c2cc3ccccc3[nH]2)CC1` (stereo not drawn) [Example 30, 1-[1-(1H-indol-2-ylcarbonyl)piperidin-4-yl]propan-2-ol] had a melting point of 163 to 167 °C. On human 17βHSD type 5, this compound displayed an IC50 of 26 nM. Further, the GI50 in series [1] was 31 nM. The concentration for half-maximal inhibition (IC50) at human 17βHSD type 3 was over 10000 nM.
On to `CC(C)(C)NC(=O)[C@H]1CC[C@H]2[C@@H]3CC[C@H]4NC(=O)C=C[C@]4(C)[C@H]3CC[C@]12C` [finasteride], for which, in the series with 5α-reductase, the “concentration of DHT in the prostate relative to the concentration before the administration” value is “about 20%” and the “increase of concentration of testosterone in the prostate” value was 4 fold.

The values above are taken from patent US8513422B2, “Piperidine derivative” (Astellas Pharma Inc., priority 2007, dated 2013).
